In patent publication US5830855A, “Lipodepsipeptides as antifungal and fungicidal agents” (priority 1996, dated 1998):
≈ marks a conversion by molar mass, not a printed value.

Assays:
Candida parapsilosis [1] = test: Broth microdilution MIC; assay type: cell-based; settings: Table 1 (MICs), 2 isolates, 48 hr
Procedure: (§1) Medium: Liquid RPMI 1640 (RPMI) medium with L-glutamine and without sodium bicarbonate (Sigma Chemical Co., R-6504; St. Louis, Mo.) buffered with 0.165M MOPS (34.54 g/liter) was used for in vitro antifungal tests. The medium was adjusted to pH 7.0 with 10M NaOH and filter sterilized.
(§2) Lipodepsipeptide Dilutions: All stock drug solution concentrations were at least 10-fold higher than the highest concentration tested. AmB, ketoconazole, and the test compounds (SR-E, ST-B, and SS-A) were dissolved in sterile distilled water, 0.2N HCl, and 0.001N HCl, respectively. Each stock solution was diluted to 2× the highest concentration of drug tested with RPMI. Two-fold dilutions were made with RPMI medium.
(§3) Preparation of Inoculum Suspensions: On Sabouraud dextose agar (SDA; BBL, Becton and Dickinson and Co., Cockeysville, Md.) all isolates were subcultured at least twice before use to ensure purity and viability. Candida spp. and Saccharomyces cerevisiae were grown for 24 hr at 35° C. Isolates of Cryptococcus neoformans were grown for 48 hr at 35° C. Yeast cells from at least five 1-mm-diameter colonies were suspended in 5 ml of sterile 0.85% saline. The resulting suspension was vortexed for 15 sec. The turbidity of each mixed suspension was measured at 530 nm and adjusted to 1×10^6 to 5×10^6 CFU/ml by the NCCLS spectrophotometric method described by National Committee for Clinical Laboratory Standards. 1992. Reference method for broth dilution antifungal susceptibility testing of yeasts; proposed standard, NCCLS document M27-P (ISBN 1-56238-186-5). NCCLS, Villanova. The final transmission of each yeast suspension ranged from 85-87%.
(§4) Aspergillus fumigatus and Mucor spp. were grown for 1 wk at 35° C. The dermatophytes, Microsporum spp. and Trichophyton spp., were grown for two wk at 30° C. Fungal spores were washed from the plates of all good spore formers (A. fumigatus, Mucor spp., Microsporum canis and Trichophyton spp.) by placing 5 ml of 0.85% saline with 0.2% Tween 80 on the plates and mixing with an inoculating loop. The spore/mycelium suspension was drawn off with a pipette and allowed to settle for at least 5 min. For the poor spore-forming Microsporum audouinii, the procedure was the same except the spore/mycelial suspension was homogenized with a ground glass tissue homogenizer and then allowed to settle for at least 5 min. A small amount of the supernatant was transferred to 5 ml of sterile saline and vortexed. The stock suspensions of all filamentous fungi were measured at 530 nm and adjusted to 85-87% transmission. The concentration (1×10^6 to 5×10^6 CFU/ml) was determined by hemacytometer count or plate count on SDA. All stock suspensions were diluted 1000-fold with RPMI, or 2× the final desired test inocula. The 2× inoculum was diluted 1:1 when the wells were inoculated, and the desired inoculum size was achieved.
(§5) Broth Microdilution Test: Broth microdilution tests were performed using sterile, disposable, multiwell microdilution plates (96 round U-bottom wells) (Falcon 3077; Becton and Dickinson Labware, Lincoln Park, N.J.). The drugs (2× concentrations) were dispensed into the wells of rows number 1 to 10 of the microdilution plates in 100 μl volumes from highest drug concentration to lowest drug concentration. Each well was inoculated with 100 μl of the corresponding 2× concentrated fungal suspension. The wells of row 11 contained the inoculum with drug-free media as a positive growth control and the wells of row 12 contained uninoculated-drug-free medium as a sterility control.
(§6) Incubation and Scoring of MIC: All cultures were incubated without shaking at the temperature used during subculture. Incubation times were 48 hr for Candida spp., S. cerevisiae, A. fumigatus, and Mucor spp; 72 hr for C. neoformans; and 7 days for Microsporum and Trichophyton spp. […]

Mucor spp. [2] = test: Broth microdilution MIC; assay type: cell-based; settings: Table 1 (MICs), 5 isolates, 48 hr
Procedure: as §1, §2, §3, §4, §5, §6

Saccharomyces cerevisiae [3] = test: Broth microdilution MIC; assay type: cell-based; settings: Table 1 (MICs), 1 strain tested more than once (control ATCC 36375), 48 hr
Procedure: as §1, §2, §3, §4, §5, §6

Candida lusitaniae [4] = test: Broth microdilution MIC; assay type: cell-based; settings: Table 1 (MICs), 2 isolates, 48 hr
Procedure: as §1, §2, §3, §4, §5, §6

Candida albicans = test: Broth microdilution MIC; assay type: cell-based; settings: Table 1 (MICs); Candida albicans, 20 isolates; RPMI pH 7.0, 48 hr; Ktz read at score 2, others at score 0
Procedure: as §1, §2, §3, §4, §5, §6

Microsporum spp. [5] = test: Broth microdilution MIC; assay type: cell-based; settings: Table 1 (MICs), 2 isolates, 7 days
Procedure: as §1, §2, §3, §4, §5, §6

Cryptococcus neoformans [6] = test: Broth microdilution MIC; assay type: cell-based
Procedure: as §1, §2, §3, §4, §5, §6

Candida krusei [7] = test: Broth microdilution MIC; assay type: cell-based; settings: Table 1 (MICs), 2 isolates, 48 hr
Procedure: as §1, §2, §3, §4, §5, §6

Aspergillus fumigatus [8] = test: Broth microdilution MIC; assay type: cell-based; settings: Table 1 (MICs), 16 isolates, 48 hr
Procedure: as §1, §2, §3, §4, §5, §6

Candida tropicalis [9] = test: Broth microdilution MIC; assay type: cell-based
Procedure: as §1, §2, §3, §4, §5, §6

Trichophyton spp. [10] = test: Broth microdilution MIC; assay type: cell-based; settings: Table 1 (MICs), 3 isolates, 7 days
Procedure: as §1, §2, §3, §4, §5, §6

Candida rugosa [11] = test: Broth microdilution MIC; assay type: cell-based
Procedure: as §1, §2, §3, §4, §5, §6

Candida kefyr [12] = test: Broth microdilution MIC; assay type: cell-based; settings: Table 1 (MICs), 1 isolate, 48 hr
Procedure: as §1, §2, §3, §4, §5, §6

[13] = system: clinical isolates (fungi); test: Broth microdilution MIC, fungal isolates overall; assay type: cell-based; settings: range over all clinical isolates
From the text: Most of the fungal strains used in the tests were clinical isolates obtained from the University of Texas Health Science Center at San Antonio Fungus Testing Laboratory (San Antonio, Tex.) and the remaining isolates were ATCC strains.
as §1
Lipodepsipeptide Dilutions: All stock drug solution concentrations were at least 10-fold higher than the highest concentration tested. […]
(§7) Preparation of Inoculum Suspensions: On Sabouraud dextose agar (SDA; BBL, Becton and Dickinson and Co., Cockeysville, Md.) all isolates were subcultured at least twice before use to ensure purity and viability. […] The turbidity of each mixed suspension was measured at 530 nm and adjusted to 1×10^6 to 5×10^6 CFU/ml by the NCCLS spectrophotometric method described by National Committee for Clinical Laboratory Standards. […]
(§8) Aspergillus fumigatus and Mucor spp. were grown for 1 wk at 35° C. […] The stock suspensions of all filamentous fungi were measured at 530 nm and adjusted to 85-87% transmission. The concentration (1×10^6 to 5×10^6 CFU/ml) was determined by hemacytometer count or plate count on SDA. […]

Candida parapsilosis [14] = test: Minimum Fungicidal Concentration (MFC); assay type: cell-based; settings: Table 2, 2 isolates, 24 hr
Procedure: as §1, §2, §3, §4, §5, §6

Mucor spp. [15] = test: Minimum Fungicidal Concentration (MFC); assay type: cell-based; settings: Table 2, 5 isolates, 24 hr
Procedure: as §1, §2, §3, §4, §5, §6

Saccharomyces cerevisiae [16] = test: Minimum Fungicidal Concentration (MFC); assay type: cell-based; settings: Table 2, 1 strain tested more than once, 24 hr
Procedure: as §1, §2, §3, §4, §5, §6

Candida lusitaniae [17] = test: Minimum Fungicidal Concentration (MFC); assay type: cell-based; settings: Table 2, 2 isolates, 24 hr
Procedure: as §1, §2, §3, §4, §5, §6

Microsporum spp. [18] = test: Minimum Fungicidal Concentration (MFC); assay type: cell-based; settings: Table 2, 2 isolates, 7 d
Procedure: as §1, §2, §3, §4, §5, §6

Cryptococcus neoformans [19] = test: Minimum Fungicidal Concentration (MFC); assay type: cell-based; settings: Table 2, 14 isolates, 48 hr
Procedure: as §1, §2, §3, §4, §5, §6

Candida krusei [20] = test: Minimum Fungicidal Concentration (MFC); assay type: cell-based; settings: Table 2, 2 isolates, 24 hr
Procedure: as §1, §2, §3, §4, §5, §6

Aspergillus fumigatus [21] = test: Minimum Fungicidal Concentration (MFC); assay type: cell-based; settings: Table 2, 16 isolates, 48 hr
Procedure: as §1, §2, §3, §4, §5, §6

Candida tropicalis [22] = test: Minimum Fungicidal Concentration (MFC); assay type: cell-based; settings: Table 2, 2 isolates, 24 hr
Procedure: as §1, §2, §3, §4, §5, §6

Trichophyton spp. [23] = test: Minimum Fungicidal Concentration (MFC); assay type: cell-based; settings: Table 2, 3 isolates, 7 d
Procedure: as §1, §2, §3, §4, §5, §6

Candida rugosa [24] = test: Minimum Fungicidal Concentration (MFC); assay type: cell-based; settings: Table 2, 2 isolates, 24 hr
Procedure: as §1, §2, §3, §4, §5, §6

Candida kefyr [25] = test: Minimum Fungicidal Concentration (MFC); assay type: cell-based; settings: Table 2, 1 isolate, 24 hr
Procedure: as §1, §2, §3, §4, §5, §6

fungal isolates = test: Fungicidal activity (MFC), fungal isolates overall; assay type: cell-based, fungi; settings: Table 2 organisms
Procedure: as §1, §2, §7, §8

C[C@@H]1[C@H](O)[C@@H](C)/C=C/C=C/C=C/C=C/C=C/C=C/C=C/[C@H](O[C@@H]2O[C@H](C)[C@@H](O)[C@H](N)[C@@H]2O)C[C@@H]2O[C@](O)(C[C@@H](O)C[C@@H](O)[C@H](O)CC[C@@H](O)C[C@@H](O)CC(=O)O[C@H]1C)C[C@H](O)[C@H]2C(=O)O [AmB, amphotericin B, reference compound]
MIC range (Candida parapsilosis [1]): 0.6 µg/mL (≈ 0.649 µM) | MIC range (Mucor spp. [2]): 0.02 to 0.15 µg/mL | MFC (μg/ml) range (Saccharomyces cerevisiae [3]): 0.3 µg/mL (≈ 0.325 µM) | MIC range (Candida lusitaniae [4]): 0.3 µg/mL (≈ 0.325 µM) | MIC range (Candida albicans): 0.04 to 0.3 µg/mL | MIC range (Microsporum spp. [5]): 0.04 to 0.3 µg/mL | MIC range (Cryptococcus neoformans [6]; Table 1 (MICs), Cryptococcus neoformans, 14 isolates, 72 hr): 0.08 to 1.25 µg/mL | MIC, one strain of C. neoformans (Cryptococcus neoformans [6]; one strain of C. neoformans, very sensitive to ST-B, somewhat resistant to AmB): 1.25 µg/mL | MIC (μg/ml) range (Candida krusei [7]): 0.3 to 0.6 µg/mL | MIC range (Aspergillus fumigatus [8]): 0.15 to 1.25 µg/mL | MIC (μg/ml) range (Candida tropicalis [9]; Table 1 (MICs), Candida tropicalis, 2 isolates, 48 hr): 0.3 to 1.25 µg/mL | susceptibility of one strain of C. tropicalis (Candida tropicalis [9]; one strain of C. tropicalis): resistance | MIC range (Trichophyton spp. [10]): 0.3 to 0.6 µg/mL | MIC range (Candida rugosa [11]; Table 1 (MICs), Candida rugosa, 2 isolates, 48 hr): 0.3 to 1.25 µg/mL | susceptibility of one strain of C. rugosa (Candida rugosa [11]; one strain of C. rugosa (AmB-resistant)): resistance | MIC (μg/ml) range (Candida kefyr [12]): 0.3 µg/mL (≈ 0.325 µM) | susceptibility (MIC) of the clinical isolates [13]: 0.02-1.25 g/ml | MFC (μg/ml) range (Candida parapsilosis [14]): 1.25 µg/mL (≈ 1.35 µM) | MFC (μg/ml) range (Mucor spp. [15]): ≤0.02 to 0.3 µg/mL | MFC (μg/ml) range (Saccharomyces cerevisiae [16]): 1.25 µg/mL (≈ 1.35 µM) | MFC (μg/ml) range (Candida lusitaniae [17]): 0.6 µg/mL (≈ 0.649 µM) | MFC (μg/ml) range (Microsporum spp. [18]): 0.08 to 0.3 µg/mL | MFC (μg/ml) range (Cryptococcus neoformans [19]): 0.15 to 1.25 µg/mL | MFC (μg/ml) range (Candida krusei [20]): 0.6 µg/mL (≈ 0.649 µM) | MFC (μg/ml) range (Aspergillus fumigatus [21]): 0.6 to 2.5 µg/mL | MFC (μg/ml) range (Candida tropicalis [22]): 0.6 to 1.25 µg/mL | MFC (μg/ml) range (Trichophyton spp. [23]): 0.3 to 0.6 µg/mL | MFC (μg/ml) range (Candida rugosa [24]): 0.6 to 2.5 µg/mL | MFC (μg/ml) range (Candida kefyr [25]): 0.3 µg/mL (≈ 0.325 µM) | fungicidal activity (fungal isolates): fungicidal activity against most of the strains tested
